In experiment [1] the target is T1, Alpha-1A adrenergic receptor (Homo sapiens, UniProt P35348).
T1 sequence (P35348 whole entry): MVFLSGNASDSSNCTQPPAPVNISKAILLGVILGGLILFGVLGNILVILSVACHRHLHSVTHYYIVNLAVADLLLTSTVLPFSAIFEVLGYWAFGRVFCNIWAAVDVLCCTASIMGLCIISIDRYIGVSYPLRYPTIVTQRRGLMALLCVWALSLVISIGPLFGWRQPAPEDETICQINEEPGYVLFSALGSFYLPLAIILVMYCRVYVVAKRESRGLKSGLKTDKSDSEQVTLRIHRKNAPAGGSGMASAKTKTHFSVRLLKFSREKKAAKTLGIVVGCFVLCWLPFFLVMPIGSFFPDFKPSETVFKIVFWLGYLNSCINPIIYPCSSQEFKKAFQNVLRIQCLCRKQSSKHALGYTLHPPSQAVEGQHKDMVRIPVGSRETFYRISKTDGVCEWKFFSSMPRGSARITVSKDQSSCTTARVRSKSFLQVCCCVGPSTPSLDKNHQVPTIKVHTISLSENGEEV

For experiment [2], the target named is 5-hydroxytryptamine receptor 2B (Homo sapiens, UniProt P41595).
5-hydroxytryptamine receptor 2B, sequence (P41595 whole entry): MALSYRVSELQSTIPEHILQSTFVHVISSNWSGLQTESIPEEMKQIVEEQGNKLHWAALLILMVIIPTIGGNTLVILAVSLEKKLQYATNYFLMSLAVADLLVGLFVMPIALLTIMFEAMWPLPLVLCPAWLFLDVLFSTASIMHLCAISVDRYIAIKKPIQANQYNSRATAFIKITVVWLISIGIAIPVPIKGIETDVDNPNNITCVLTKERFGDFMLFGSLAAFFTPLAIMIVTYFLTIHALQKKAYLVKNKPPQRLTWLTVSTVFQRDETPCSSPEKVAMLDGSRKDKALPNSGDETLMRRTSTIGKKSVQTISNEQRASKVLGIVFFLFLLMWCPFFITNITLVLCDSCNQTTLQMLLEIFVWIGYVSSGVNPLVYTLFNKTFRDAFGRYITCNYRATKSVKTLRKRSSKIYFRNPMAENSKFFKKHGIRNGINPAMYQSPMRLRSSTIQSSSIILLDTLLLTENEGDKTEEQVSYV
Experiment [3] deals with D(1A) dopamine receptor (Homo sapiens, UniProt P21728).
D(1A) dopamine receptor, sequence (P21728 whole entry): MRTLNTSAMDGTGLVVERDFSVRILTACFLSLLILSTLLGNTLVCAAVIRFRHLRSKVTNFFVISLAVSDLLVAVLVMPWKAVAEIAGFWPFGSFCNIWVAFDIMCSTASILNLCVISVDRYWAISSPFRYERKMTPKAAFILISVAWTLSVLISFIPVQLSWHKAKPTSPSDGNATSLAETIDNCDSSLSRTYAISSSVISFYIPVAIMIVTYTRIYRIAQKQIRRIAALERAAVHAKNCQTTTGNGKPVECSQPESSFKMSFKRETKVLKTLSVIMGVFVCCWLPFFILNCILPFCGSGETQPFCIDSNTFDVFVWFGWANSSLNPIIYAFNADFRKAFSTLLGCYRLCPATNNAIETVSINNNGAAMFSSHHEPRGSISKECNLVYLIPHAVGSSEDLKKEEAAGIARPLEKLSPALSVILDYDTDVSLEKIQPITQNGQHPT
The target of experiment [4] is Melanocortin receptor 4 (Homo sapiens, UniProt P32245).
Melanocortin receptor 4, sequence (P32245 whole entry): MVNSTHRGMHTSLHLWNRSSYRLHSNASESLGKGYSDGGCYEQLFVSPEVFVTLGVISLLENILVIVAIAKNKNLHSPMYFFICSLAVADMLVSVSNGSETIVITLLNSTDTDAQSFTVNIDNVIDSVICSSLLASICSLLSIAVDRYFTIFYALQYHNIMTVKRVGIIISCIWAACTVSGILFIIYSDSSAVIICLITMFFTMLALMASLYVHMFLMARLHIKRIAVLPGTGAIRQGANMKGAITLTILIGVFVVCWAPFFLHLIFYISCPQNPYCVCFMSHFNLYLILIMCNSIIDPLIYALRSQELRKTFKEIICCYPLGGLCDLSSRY
Experiment [5] addresses Mu-type opioid receptor (Homo sapiens, UniProt P35372).
Experiment [6] deals with T1, Alpha-1A adrenergic receptor. Type of experiment: functional, cell-based.
Experiment [7] has as its target T2, Alpha-2A adrenergic receptor (Homo sapiens, UniProt P08913).
T2 sequence (P08913 whole entry): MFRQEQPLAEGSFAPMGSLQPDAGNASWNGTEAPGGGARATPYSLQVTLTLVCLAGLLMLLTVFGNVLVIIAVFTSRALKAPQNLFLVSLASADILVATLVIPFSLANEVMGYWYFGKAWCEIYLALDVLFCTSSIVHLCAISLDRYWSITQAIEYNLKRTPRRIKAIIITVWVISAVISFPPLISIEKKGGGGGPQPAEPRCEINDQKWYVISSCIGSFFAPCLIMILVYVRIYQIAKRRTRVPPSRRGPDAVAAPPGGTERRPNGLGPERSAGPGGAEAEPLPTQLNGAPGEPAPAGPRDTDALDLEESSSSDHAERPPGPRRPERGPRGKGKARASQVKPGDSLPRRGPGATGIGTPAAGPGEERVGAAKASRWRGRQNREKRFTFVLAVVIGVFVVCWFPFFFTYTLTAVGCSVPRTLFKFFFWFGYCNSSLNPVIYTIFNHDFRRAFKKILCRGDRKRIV

For experiment [8], the target named is T3, 5-hydroxytryptamine receptor 1A (Homo sapiens, UniProt P08908).
T3 sequence (P08908 whole entry): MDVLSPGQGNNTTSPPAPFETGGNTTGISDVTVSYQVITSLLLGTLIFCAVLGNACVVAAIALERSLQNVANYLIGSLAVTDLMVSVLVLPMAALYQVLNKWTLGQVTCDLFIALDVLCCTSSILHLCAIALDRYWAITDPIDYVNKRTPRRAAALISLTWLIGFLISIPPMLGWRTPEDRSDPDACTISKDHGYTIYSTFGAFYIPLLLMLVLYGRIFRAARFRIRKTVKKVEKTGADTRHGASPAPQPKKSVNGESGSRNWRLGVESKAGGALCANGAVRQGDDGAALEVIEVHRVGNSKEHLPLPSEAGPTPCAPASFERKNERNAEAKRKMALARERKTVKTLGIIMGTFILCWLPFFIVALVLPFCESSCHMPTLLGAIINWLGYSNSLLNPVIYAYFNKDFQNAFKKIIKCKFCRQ

The target of experiment [9] is T4, Androgen receptor (Rattus norvegicus, UniProt P15207).
T4 sequence (P15207 whole entry): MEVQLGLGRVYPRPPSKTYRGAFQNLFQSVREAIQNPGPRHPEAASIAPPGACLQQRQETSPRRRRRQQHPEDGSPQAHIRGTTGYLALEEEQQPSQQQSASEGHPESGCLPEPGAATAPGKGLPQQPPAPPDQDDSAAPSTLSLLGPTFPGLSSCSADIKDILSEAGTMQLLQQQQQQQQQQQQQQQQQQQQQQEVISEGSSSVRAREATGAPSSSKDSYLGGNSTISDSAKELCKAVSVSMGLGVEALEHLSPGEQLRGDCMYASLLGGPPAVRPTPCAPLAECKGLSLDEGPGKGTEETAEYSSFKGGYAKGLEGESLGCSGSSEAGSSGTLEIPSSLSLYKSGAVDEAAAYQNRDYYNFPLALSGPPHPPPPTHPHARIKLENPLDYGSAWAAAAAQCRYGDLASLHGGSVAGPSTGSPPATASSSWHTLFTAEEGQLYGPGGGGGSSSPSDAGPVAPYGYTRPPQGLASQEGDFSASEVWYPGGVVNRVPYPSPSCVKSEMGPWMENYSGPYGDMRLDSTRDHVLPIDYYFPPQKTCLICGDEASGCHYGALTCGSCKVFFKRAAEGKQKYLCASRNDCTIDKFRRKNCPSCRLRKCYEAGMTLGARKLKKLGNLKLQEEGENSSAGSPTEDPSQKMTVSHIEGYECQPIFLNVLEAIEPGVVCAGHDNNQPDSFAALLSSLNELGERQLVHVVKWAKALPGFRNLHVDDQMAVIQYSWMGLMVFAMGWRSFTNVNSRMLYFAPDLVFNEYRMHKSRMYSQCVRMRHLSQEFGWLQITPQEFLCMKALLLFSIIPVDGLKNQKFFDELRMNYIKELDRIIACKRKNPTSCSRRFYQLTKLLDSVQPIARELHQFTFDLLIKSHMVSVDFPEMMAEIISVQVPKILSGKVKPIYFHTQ
Type of experiment: functional.
Note: assay procedure not described here.

Mu-type opioid receptor, sequence (P35372 whole entry): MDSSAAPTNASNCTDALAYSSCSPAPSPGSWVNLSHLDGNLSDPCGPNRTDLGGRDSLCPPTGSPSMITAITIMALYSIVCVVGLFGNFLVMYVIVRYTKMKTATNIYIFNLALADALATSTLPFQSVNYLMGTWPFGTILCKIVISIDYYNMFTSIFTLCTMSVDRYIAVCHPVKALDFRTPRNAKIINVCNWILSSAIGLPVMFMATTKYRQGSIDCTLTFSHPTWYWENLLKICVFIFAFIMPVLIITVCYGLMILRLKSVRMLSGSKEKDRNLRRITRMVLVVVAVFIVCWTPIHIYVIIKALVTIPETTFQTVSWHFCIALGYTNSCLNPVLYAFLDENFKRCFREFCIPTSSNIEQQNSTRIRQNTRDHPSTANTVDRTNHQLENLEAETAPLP

Broadly, the AC50 is the midpoint of the concentration-response curve, whichever way the signal moves. `CNS(=O)(=O)Cc1ccc2[nH]cc(CCN(C)C)c2c1`: the half-maximal activity concentration (AC50) is > 30 µM in experiment [1]; 14 µM in experiment [2]; > 10 µM in [3]; > 30 µM in experiment [4]; > 10 µM in [5]; > 30 µM in experiment [6]. Moreover, the AC50 in [7] was > 10 µM.
In the case of `CCCN(CCC)C(=O)C(CCC(=O)O)NC(=O)c1ccccc1` (stereo unspecified) [PROGLUMIDE], the AC50 is > 30 µM in experiment [1]; > 10 µM in experiment [2]; > 10 µM in experiment [3]; > 30 µM in experiment [4]; > 30 µM in [5]; > 10 µM in [8]. For the same molecule, in [7], the AC50 is > 10 µM.
Turning to `C[C@](N)(Cc1ccc(O)c(O)c1)C(=O)O` [METHYLDOPA], the figures for the concentration at half-maximal activity (AC50) in [1], in [4] and in experiment [5] were 7.1 µM, > 10 µM and > 30 µM, respectively.
For `Cc1cccc(C(C)c2cnc[nH]2)c1C` (stereo unspecified) [MEDETOMIDINE] the same measures were 0.11 µM, > 30 µM and > 30 µM.
For `CCC1(CC)C(=O)NCC(C)C1=O` (stereo unspecified) [METHYPRYLON], the AC50 in experiment [9] was > 30 µM.
Turning to `CN1CCN(CC/C=C2/c3ccccc3Sc3ccc(S(=O)(=O)N(C)C)cc32)CC1` [THIOTHIXENE], the AC50 is 0.0244 µM in [1]; 0.857 µM in experiment [2]; 0.0774 µM in experiment [3]; > 30 µM in [4]; > 10 µM in [5]; 0.31 µM in [6]. In addition, half-maximal activity in [7] (AC50) was put at 0.755 µM.
Take `COc1ccc(CCN(C)CCCC(C#N)(c2cc(OC)c(OC)c(OC)c2)C(C)C)cc1OC` (stereo unspecified) [GALLOPAMIL]: the values for the AC50 in [2] and in experiment [6] were 0.0819 µM and > 30 µM, respectively.
As for `CC=CC(=O)N(CC)c1ccccc1C`, the AC50 in experiment [1] is > 10 µM; in [4] it was > 10 µM; in experiment [5], > 30 µM; in experiment [6] it was > 30 µM.
For `O=C(NCCN1CCOCC1)c1ccc(Cl)cc1` [MOCLOBEMIDE], the half-maximal activity concentration (AC50) in [1] is > 10 µM; in experiment [4], > 10 µM; in [5] it was > 30 µM.
Turning to `O=C(O)CCCCCCCC(=O)O` [AZELAIC ACID], the AC50 in experiment [1] was > 30 µM; in [4] it was > 10 µM; in [5], > 30 µM.
Regarding `C[C@]12CC[C@H]3[C@@H](CCC4=CC(=O)CC[C@@]43C)[C@@H]1CC[C@@H]2O` [TESTOSTERONE], the AC50 in experiment [1] is > 30 µM; in experiment [4] it was > 10 µM; in experiment [5], > 30 µM.
As to `Cc1ccc(S(=O)(=O)NC(=O)NN2CC3CCCC3C2)cc1` (stereo unspecified) [GLICLAZIDE], the AC50 was > 30 µM in experiment [1], > 10 µM in experiment [4] and > 30 µM in experiment [5].
In the case of `CC1(C)O[C@@H]2C[C@H]3[C@@H]4CCC5=CC(=O)C=C[C@]5(C)[C@H]4[C@@H](O)C[C@]3(C)[C@]2(C(=O)CO)O1` [DESONIDE], the concentration at half-maximal activity (AC50) in experiment [1] is > 10 µM; in experiment [4] it was > 10 µM; in [5], > 30 µM; in experiment [6], > 30 µM.
As for `CC(C)Cn1cnc2c(N)nc3ccccc3c21` [IMIQUIMOD], the half-maximal activity concentration (AC50) was 5.67 µM in experiment [1], > 10 µM in experiment [4], > 30 µM in experiment [5] and > 10 µM in experiment [8].
`O=C(O)C[C@H](O)C[C@H](O)/C=C/c1c(C2CC2)nc2ccccc2c1-c1ccc(F)cc1` [PITAVASTATIN]: the AC50 in [1] is > 10 µM; in experiment [4], > 10 µM; in experiment [5], > 30 µM; in [6] it was > 30 µM.
In the case of `CN1C(=O)OC(C)(C)C1=O` [TRIMETHADIONE], the concentration at half-maximal activity (AC50) in experiment [1] was > 10 µM; in [4], > 10 µM; in [5], > 30 µM.
Take `O=C(O)[C@H](CC(=O)N1C[C@H]2CCCC[C@H]2C1)Cc1ccccc1` [MITIGLINIDE]: the figures for the AC50 in experiment [1], in experiment [4] and in [5] were > 10 µM, > 10 µM and > 30 µM, respectively.
Turning to `C#C[C@]1(O)CC[C@H]2[C@@H]3CCC4=Cc5oncc5C[C@]4(C)[C@H]3CC[C@@]21C` [DANAZOL], the AC50 was > 10 µM in experiment [1], > 10 µM in [4], > 30 µM in experiment [5] and > 30 µM in experiment [6].
Take `C#C[C@]1(O)CC[C@H]2[C@@H]3CCc4cc(OC5CCCC5)ccc4[C@H]3CC[C@@]21C` [QUINESTROL]: the AC50 was > 10 µM in experiment [1], > 10 µM in experiment [4] and > 30 µM in experiment [5].
Consider `COc1ccccc1N1CCN(CCCNc2cc(=O)n(C)c(=O)n2C)CC1`, for which the half-maximal activity concentration (AC50) in experiment [1] is 0.0043 µM; in [6], 0.57 µM; in experiment [8] it was 0.492 µM.
As to `OC(CNCC(O)C1CCc2cc(F)ccc2O1)C1CCc2cc(F)ccc2O1` (stereo unspecified) [NEBIVOLOL], the AC50 turned out to be 3.1 µM in experiment [6] and 0.14 µM in experiment [8].
In the case of `NCC[C@H](O)C(=O)N[C@@H]1C[C@H](N)[C@@H](O[C@H]2O[C@H](CN)[C@@H](O)[C@H](O)[C@H]2O)[C@H](O)[C@H]1O[C@H]1O[C@H](CO)[C@@H](O)[C@H](N)[C@H]1O` [AMIKACIN], the results for the concentration at half-maximal activity (AC50) in experiment [1], in experiment [4] and in experiment [5] were > 10 µM, > 10 µM and > 30 µM, respectively.
Take `N#Cc1ccc([C@H]2CCc3cncn32)c(F)c1` [OSILODROSTAT]: the AC50 in experiment [2], in experiment [3], in experiment [4], in experiment [5], in experiment [8] and in [7] was > 10 µM throughout.
For `C=CCC1(CC(C)C)C(=O)NC(=O)NC1=O` [BUTALBITAL], the half-maximal activity concentration (AC50) in [1] is > 30 µM; in experiment [4], > 10 µM; in experiment [5] it was > 30 µM; in experiment [6], > 30 µM.
As to `COc1cc2c(N)nc(N3CCN(C(=O)OCC(C)(C)O)CC3)nc2c(OC)c1OC` [TRIMAZOSIN], the concentration at half-maximal activity (AC50) in [1] turned out to be 1.8 µM; in [9], 17 µM; in experiment [6], 1.2 µM.
Consider `CC(C[N+](C)(C)C)OC(N)=O` (stereo unspecified) [BETHANECHOL], for which the concentration at half-maximal activity (AC50) is > 10 µM in experiment [1], > 10 µM in [4] and > 30 µM in experiment [5].
Regarding `CCCC(C)C1(CC)C(=O)NC(=O)NC1=O` (stereo unspecified) [PENTOBARBITAL], the AC50 in [1] is > 30 µM; in experiment [4], > 10 µM; in experiment [5], > 30 µM; in experiment [6], > 30 µM.
As to `CCCCCCOc1ccccc1C(N)=O` [EXALAMIDE], the results for the AC50 in [2] and in experiment [6] were 0.27 µM and > 30 µM, respectively.
